Patent publication US20190375708A1 (VenatoRx Pharmaceuticals, Inc., priority 2018, published 2019)
pEC50: −log10 of the molar value.

Tests used:
[1] = In vitro cytotoxicity assay (MTT cell viability) in HepG2 cells; type: cell-based, human; conditions: human
Outline: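 CC50 values reflect loss of HepG2 viability after a 7-day exposure at 37 °C, 5% CO2. After 3-4 h with MTT, solubilized formazan was quantified at 492 nm relative to vehicle wells.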

[2] = system: HBV replication in HepAD38 cells; test: Anti-HBV replication assay in HepAD38 cells (QPCR of extracellular HBV DNA); type: cell-based, HBV (genotype D, serotype ayw); conditions: Hepatitis B virus, 168 h, 7 days incubation, extracellular HBV DNA by QPCR, read-out: Anti-HBV EC50
Outline: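 Tet-off HepAD38, 7-day compound exposure ([…], 1 log10 steps, DMSO vehicle), 37 °C. Extracellular HBV DNA by QPCR, copies/mL via standard curve, % inhibition vs vehicle, EC50 by 4-parameter regression. Entecavir as positive control.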

Row | SMILES | CC50 at 7 days [1] | pEC50 [2]
1 | Cc1cc(NC(=O)c2c(C)c(C(=O)C(=O)N[C@@H](C)C(F)(F)F)n3c2CCCC3)cnc1F [Example 470, (S)-N-(6-fluoro-5-methylpyridin-3-yl)-2-methyl-3-(2-oxo-2-((1,1,1-trifluoropropan-2-yl)amino)acetyl)-5,6,7,8-tetrahydroindolizine--1 carboxamide] | 5 to 30 µM | 6.00 to 6.30
2 | Cc1cc(NC(=O)c2c(C)c(C(=O)C(=O)N[C@H]3CC[C@H](O)CC3)n(CCF)c2C)ccc1F [Example 198, N-(4-fluoro-3-methylphenyl)-1-(2-fluoroethyl)-5-(2-(((1r,4r)-4-hydroxycyclohexyl)amino)-2-oxoacetyl)-2,4-dimethyl-1H-pyrrole-3-carboxamide] | > 30 µM | 6.30 to 7.30
3 | Cc1c(C(=O)Nc2ccc(F)c(F)c2)c2n(c1C(=O)C(=O)NCC(C)(C)O)CCCC2 [Example 462, N-(3,4-difluorophenyl)-3-(2-((2-hydroxy-2-methylpropyl)amino)-2-oxoacetyl)-2-methyl-5,6,7,8-tetrahydroindolizine--1 carboxamide] | > 30 µM | 6.30 to 7.30
4 | CNC(=O)[C@@H](NC(=O)C(=O)c1c(C)c(C(=O)Nc2ccc(F)c(C)c2)c(C)n1C)C1CCCC1 [Example 125, (S)-5-(2-((1-cyclopentyl-2-(methylamino)-2-oxoethyl)amino)-2-oxoacetyl)-N-(4-fluoro-3-methylphenyl)-1,2,4-trimethyl-1H-pyrrole-3-carboxamide] | 0.5 to 4.99 µM | > 7.30
5 | Cc1c(C(=O)Nc2ccc(F)c(F)c2)c(C)n(C)c1C(=O)C(=O)NC1(CO)CCCCC1 [Example 616, N-(3,4-difluorophenyl)-5-(2-((1-(hydroxymethyl)cyclohexyl)amino)-2-oxoacetyl)-1,2,4-trimethyl-1H-pyrrole-3-carboxamide] | > 30 µM | > 7.30
6 | COc1cc(NC(=O)C(=O)c2c(C)c(C(=O)Nc3ccc(F)c(C)c3)c(C)n2C)ccc1B(O)O [Example 248, (4-(2-(4-((4-fluoro-3-methylphenyl)carbamoyl)-1,3,5-trimethyl-1H-pyrrol-2-yl)-2-oxoacetamido)-2-methoxyphenyl)boronic acid] | 5 to 30 µM | 6.30 to 7.30
7 | Cc1cc(NC(=O)c2c(C)c(C(=O)C(=O)N[C@@H]3C[C@H](O)[C@H]4OC(C)(C)O[C@H]43)n(C)c2C)ccc1F [Example 695, N-(4-fluoro-3-methylphenyl)-5-(2-(((3aS,4R,6S,6aR)-6-hydroxy-2,2-dimethyltetrahydro-4H-cyclopenta[d][1,3]dioxol-4-yl)amino)-2-oxoacetyl)-1,2,4-trimethyl-1H-pyrrole-3-carboxamide] | > 30 µM | > 7.30
8 | Cc1cc(NC(=O)c2c(Cl)c(C(=O)C(=O)NC3(CO)CC(F)(F)C3)n(C)c2C)ccc1F [Example 366, 4-chloro-5-(2-((3,3-difluoro-1-(hydroxymethyl)cyclobutyl)amino)-2-oxoacetyl)-N-(4-fluoro-3-methylphenyl)-1,2-dimethyl-1H-pyrrole-3-carboxamide] | > 30 µM | > 7.30
9 | Cc1cc(NC(=O)c2c(C)c(C(=O)C(=O)N[C@H](CO)C(N)=O)n(C)c2C)ccc1F [Example 54, (R)-5-(2-((1-amino-3-hydroxy-1-oxopropan-2-yl)amino)-2-oxoacetyl)-N-(4-fluoro-3-methylphenyl)-1,2,4-trimethyl-1H-pyrrole-3-carboxamide] | > 30 µM | 6.30 to 7.30
10 | Cc1cc(NC(=O)c2c(C)c(C(=O)C(=O)N[C@H]3CC[C@@H](O)CC3)n(C)c2C)cnc1F [Example 174, N-(6-fluoro-5-methylpyridin-3-yl)-5-(2-(((1s,4s)-4-hydroxycyclohexyl)amino)-2-oxoacetyl)-1,2,4-trimethyl-1H-pyrrole-3-carboxamide] | > 30 µM | 6.30 to 7.30
11 | Cc1cc(NC(=O)c2c(C)c(C(=O)C(=O)NC34CC5CC(CC(O)(C5)C3)C4)n(C)c2C)cnc1F [Example 114, N-(6-fluoro-5-methylpyridin-3-yl)-5-(2-(((1r,3s,5R,7S)-3-hydroxyadamantan-1-yl)amino)-2-oxoacetyl)-1,2,4-trimethyl-1H-pyrrole-3-carboxamide] | > 30 µM | > 7.30
12 | Cc1c(C(=O)NC2CCCC2)c2n(c1C(=O)C(=O)NC1(CO)CCC1)CCCC2 [Example 746, N-cyclopentyl-3-(2-((1-(hydroxymethyl)cyclobutyl)amino)-2-oxoacetyl)-2-methyl-5,6,7,8-tetrahydroindolizine-1-carboxamide] | > 30 µM | 6.30 to 7.30
13 | CC(=O)N1CCn2c(C(=O)C(=O)NC(C)(C)C)cc(C(=O)Nc3ccc(F)c(C)c3)c2C1 [Example 590, 2-acetyl-6-(2-(tert-butylamino)-2-oxoacetyl)-N-(4-fluoro-3-methylphenyl)-1,2,3,4-tetrahydropyrrolo[1,2-a]pyrazine-8-carboxamide] | > 30 µM | 6.00 to 6.30
14 | Cc1c(C(=O)Nc2cccc(Cl)c2)c(C)n(C)c1C(=O)C(=O)NC(C)(C)CO [Example 600, N-(3-chlorophenyl)-5-(2-((1-hydroxy-2-methylpropan-2-yl)amino)-2-oxoacetyl)-1,2,4-trimethyl-1H-pyrrole-3-carboxamide] | > 30 µM | > 7.30
15 | Cc1c(C(=O)Nc2ccnc(Cl)c2)c(C)n(C)c1C(=O)C(=O)NC1(C(F)(F)F)CCOCC1 [Example 253, N-(2-chloropyridin-4-yl)-1,2,4-trimethyl-5-(2-oxo-2-((4-(trifluoromethyl)tetrahydro-2H-pyran-4-yl)amino)acetyl)-1H-pyrrole-3-carboxamide] | > 30 µM | > 7.30
16 | Cc1noc([C@H](C)NC(=O)C(=O)c2c(Cl)c(C(=O)Nc3ccnc(F)c3)c3n2CCCC3)n1 [Example 509, (S)-2-chloro-N-(2-fluororpyridin-4-yl)-3-(2-((1-(3-methyl-1,2,4-oxadiazol-55-yl)ethyl)amino)-2-oxoacetyl)-5,6,7,8-tetrahydroindoliznie-1-carboxamide] | > 30 µM | 6.00 to 6.30
17 | Cc1cc(NC(=O)c2c(C)c(C(=O)C(=O)NC3(C)CCN(c4nccs4)CC3)n(C)c2C)ccc1F [Example 699, N-(4-fluoro-3-methylphenyl)-1,2,4-trimethyl-5-(2-((4-mmethyl-1-(thiazol-2-yl)piperidin-4-yl)amino)-2-oxoacetyl)-1H-pyrrole-3-carboxamide] | 5 to 30 µM | > 7.30
18 | Cc1c(C(=O)Nc2ccc(F)nc2)c(C)n(C)c1C(=O)C(=O)NC1(C(N)=O)CCCCC1 [Example 93, 5-(2-((1-carbamoylcyclohexyl)amino)-2-oxoacetyl)-N-(6-fluoropyridin-3-yl)-1,2,4-trimethyl-1H-pyrrole-3-carboxamide] | > 30 µM | 6.30 to 7.30
19 | Cc1cc(NC(=O)c2c(C)c(C(=O)C(=O)NC3CCN(C4COC4)CC3)n(C)c2C)ccc1F [Example 652, N-(4-fluoro-3-methylphenyl)-1,2,4-trimethyl-5-(2-((1-(oxetan-3-yl)piperidin-4-yl)amino)-2-oxoacetyl)-1H-pyrrole-3-carboxamide] | > 30 µM | > 7.30
